The target in one assay is JAK1 (Homo sapiens (Human), UniProt P23458). Briefly: JAK biochemical HTRF enzyme assay, JAK1. The following applies: reference compound, mean +/- spread across assay runs. The procedure:
(§1) The ability of compounds to inhibit the activity of JAK1, JAK2, JAK3, and Tyk2 was measured using a recombinant purified GST-tagged catalytic domain for each enzyme (InVitrogen/Life Technologies/ThermoFisher Scientific Inc., Waltham, Mass., USA; catalogue numbers: M4290(JAK1), M4290(JAK2), M4290(JAK3), M4290(Tyk2)) in an HTRF format biochemical assay.
(§2) Subsequent reagent additions employed an Agilent™ Bravo™ liquid handling system (Aligent Technologies, Santa Clara, Calif., USA). […] After equilibration, 2 μL of 10×ATP in 1× assay buffer was added to initiate the kinase reaction and the plates were shaken and then incubated at ambient temperature for 120 minutes. […] After normalization to untreated controls, the percent inhibition of the HTRF signal at each compound concentration was calculated. The plot of percent inhibition versus the log of compound concentration was fit with a 4-parameter dose response equation to calculate IC50 values.

Another assay concerns the target JAK2 (Homo sapiens (Human), UniProt O60674). Nature of the assay: JAK biochemical HTRF enzyme assay, JAK2. Conditions: reference compound, mean +/- spread across assay runs. The procedure:
as §1, §2
A general note: Time-resolved FRET reads energy transfer from a long-lived donor to a nearby acceptor.

The next assay deals with JAK3 (Homo sapiens (Human), UniProt P52333). Nature of the assay: JAK biochemical HTRF enzyme assay, JAK3. Conditions: reference compound, mean +/- spread across assay runs. The procedure:
(§3) The ability of compounds to inhibit the activity of JAK1, JAK2, JAK3, and Tyk2 was measured using a recombinant purified GST-tagged catalytic domain for each enzyme (InVitrogen/Life Technologies/ThermoFisher Scientific Inc., Waltham, Mass., USA; catalogue numbers: M4290(JAK1), M4290(JAK2), M4290(JAK3), M4290(Tyk2)) in an HTRF format biochemical assay. The reactions employed a common peptide substrate, LCB-[…]-NH2 (Merck Sharp & Dohme, Kenilworth, N.J., USA).
(§4) The basic assay protocol is as follows: First, 250 nL of diluted compounds in DMSO were dispensed into the wells of a dry 384-well Black plate (GreinerFluotrac™ catalog number: 781076; Greiner Bio-One GmbH, Frickenhausen, Germany) using a Labcyte Echo® 555 acoustic dispenser (Clarcyte, Inc, Sunnyvale, Calif., USA). Subsequent reagent additions employed an Agilent™ Bravo™ liquid handling system (Aligent Technologies, Santa Clara, Calif., USA). […] After equilibration, 2 μL of 10×ATP in 1× assay buffer was added to initiate the kinase reaction and the plates were shaken and then incubated at ambient temperature for 120 minutes. […] HTRF signal=10,000*665 nm reading/615 nm reading. After normalization to untreated controls, the percent inhibition of the HTRF signal at each compound concentration was calculated. […]

In the next assay the target is Tyk2 (Homo sapiens (Human), UniProt P29597). Nature of the assay: JAK biochemical HTRF enzyme assay, Tyk2. Conditions: reference compound, mean +/- spread across assay runs. The protocol:
as §3, §4

The test system of assay [1] is IL-6R/JAK1/2/Stat3 pathway. Briefly: IL6 CellSensor beta-lactamase reporter assay (SIE-bla ME-180 cells). The class given is cell-based. Conditions: Homo sapiens, ME-180; reference compound, mean +/- spread across assay runs; read-out: IL6 CellSensor assay IC50. The source says:
(§5) Inhibition of the activity of JAK kinases (JAK1, JAK2, JAK3 and TYK2) in intact cells was quantified in antagonist mode using CellSensor® transcriptional reporter technology (Life Technologies/ThermoFisher Scientific Inc., Waltham, Mass., USA; https://www.thermofisher.com/us/en/home/industrial/pharma-biopharma drug-discovery-development/target-and-lead-identification-and-validation/pathway-biology/cellular-pathway-analysis/cellsensor-cell-lines.html), in three independent cell lines engineered to detect IL4, IL6 and EPO signaling. In brief, CellSensor® cell lines (see details below for each assay) carrying a stably integrated β-Lactamase reporter gene under control of specific cis-regulatory STAT elements responsive to the pathway being monitored were pre-treated with test compounds serially diluted in DMSO (see preparation and dosing of compounds and agonist cytokines section).
(§6) Incubation with compounds, cytokines and LiveBLAzer™ were carried out at 37° C. in a tissue culture incubator maintained at 90% humidity and 5% CO2.
Interleukin 6 (IL6)—JAK1/JAK2—STAT4 Pathway
CellSensor™ SIE-bla ME-180 cells carrying a stably integrated β-Lactamase reporter gene under control of the Sis-Inducible Element (SIE).
(§7) Each CellSensor® cell line was subsequently plated as per supplier's instructions (30,000 cells in 32 μL/well) and mixed with the compound. Following a 60 minute incubation, cells were subsequently stimulated by addition of 8 μL of cognate cytokine (EC80 dose of IL4, IL6 and EPO) and incubated for an additional 3 hours, before adding LiveBLAzer™-FRET B/G substrate.
(§8) The IL-6 assay identifies agents that inhibit the beta-lactamase reporter activity initiated through stimulation of the IL-6R/JAK1/2/Stat3 pathway with recombinant human IL-6. The EPO assay identifies agents that inhibit the beta-lactamase reporter activity initiated through stimulation of the EPO/Jak2/Stat5 pathway with human EPO. Inhibition of EPO signaling leads to an inability to recover from anemia of chronic disease. […] That is, it is desirable for the EPO/IL-6 IC50 ratios to be a relatively large number.
(Reporter assays use an easily measured gene product as a stand-in for the process of interest.)

The test system of another assay is EPO/Jak2/Stat5 pathway. Briefly: EPO CellSensor beta-lactamase reporter assay (irf1-bla TF-1 cells). The class given is cell-based, human.
Source text: as §5, §6
Erythropoietin (EPO)—JAK2—STAT5 Pathway
CellSensor irf1-bla TF-1 cells carry a stably integrated β-Lactamase reporter gene under control of the STAT5 Response Elements present in the Interferon Regulatory Factor I (IRF1) gene promoter.
as §7, §8

The subject of assay [2] is Interleukin 4 (IL4)—JAK1/JAK3—STAT6 Pathway. Nature of the assay: IL4 CellSensor beta-lactamase reporter assay (STAT6-bla RA-1 cells). The class given is cell-based. The following applies: reference compound, mean +/- spread across assay runs.
Source text: as §5, with “section). Following incubation with compounds, IL4, IL6, or EPO were added to each cognate cell line at a concentration equal to a dose necessary to achieve 80% of the maximal response (EC80).” for “section).”
as §6
Interleukin 4 (IL4)—JAK1/JAK3—STAT6 Pathway […]

Chain of JAK1 (P23458 875-1153): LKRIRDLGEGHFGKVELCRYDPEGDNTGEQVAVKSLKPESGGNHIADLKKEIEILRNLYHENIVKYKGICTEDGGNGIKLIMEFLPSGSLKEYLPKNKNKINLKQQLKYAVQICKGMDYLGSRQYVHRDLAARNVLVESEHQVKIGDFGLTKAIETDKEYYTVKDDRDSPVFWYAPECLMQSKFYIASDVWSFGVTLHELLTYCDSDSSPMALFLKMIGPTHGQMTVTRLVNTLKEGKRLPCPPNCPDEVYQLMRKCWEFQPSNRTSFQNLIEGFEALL
Chain of JAK3 (P52333 822-1111): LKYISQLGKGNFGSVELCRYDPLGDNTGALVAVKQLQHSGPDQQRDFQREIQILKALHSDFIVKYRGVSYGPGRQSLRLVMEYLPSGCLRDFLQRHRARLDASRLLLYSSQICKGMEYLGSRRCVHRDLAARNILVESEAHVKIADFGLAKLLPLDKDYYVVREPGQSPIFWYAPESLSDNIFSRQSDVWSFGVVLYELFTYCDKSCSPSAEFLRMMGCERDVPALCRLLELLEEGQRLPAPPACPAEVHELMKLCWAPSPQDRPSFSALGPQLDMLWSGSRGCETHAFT
Chain of Tyk2 (P29597 897-1176): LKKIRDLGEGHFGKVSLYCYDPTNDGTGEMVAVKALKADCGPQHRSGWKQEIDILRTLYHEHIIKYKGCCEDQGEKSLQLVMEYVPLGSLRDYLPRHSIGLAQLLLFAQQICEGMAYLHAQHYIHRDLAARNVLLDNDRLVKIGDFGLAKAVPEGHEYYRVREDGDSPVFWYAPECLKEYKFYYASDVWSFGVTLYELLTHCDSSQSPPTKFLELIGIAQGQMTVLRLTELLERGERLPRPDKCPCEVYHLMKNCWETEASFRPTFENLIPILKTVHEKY
Chain of JAK2 (O60674 849-1124): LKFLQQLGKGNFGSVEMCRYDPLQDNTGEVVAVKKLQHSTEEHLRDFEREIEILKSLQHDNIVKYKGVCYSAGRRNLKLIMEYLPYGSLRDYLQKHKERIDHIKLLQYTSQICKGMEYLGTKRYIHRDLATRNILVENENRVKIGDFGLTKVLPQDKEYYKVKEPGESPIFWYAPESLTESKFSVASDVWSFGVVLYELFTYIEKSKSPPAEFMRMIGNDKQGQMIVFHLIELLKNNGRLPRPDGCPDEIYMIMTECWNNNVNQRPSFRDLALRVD

The term IC50 denotes the concentration needed to halve the response being measured. Consider `CS(=O)(=O)c1ccc(Nc2nn([C@H]3CCCC[C@@H]3C#N)c3cc[nH]c(=O)c23)cc1` [Reference Compound No. 2, (1S,2S)-2-(3-{[4-(methylsulfonyl)phenyl]amino}-4-oxo-4,5-dihydro-1H-pyrazolo[4,3-c]pyridin-1-yl)cyclohexanecarbonitrile, reference compound], for which the IC50 on JAK1 was 0.00017 µM; against JAK2, 0.001 µM; against JAK3, 0.0219 µM; on Tyk2 it was 0.00028 µM; in assay [1] it was 0.021 µM; in the assay on EPO/Jak2/Stat5 pathway (Homo sapiens, TF-1, reference compound, mean +/- spread across assay runs, read-out: EPO CellSensor assay IC50) it was 0.0395 µM. Besides, in assay [2], the midpoint of inhibition, the IC50, lay at 0.0111 µM. The “potency spread across the IL6, EPO and IL4 CellSensor assays” value in the assay with EPO/Jak2/Stat5 pathway (across all three CellSensor assays) is reported as “two to three”.

Source of the values: patent US10766883B2, “Aminopyrazoles as janus kinase inhibitors” (Merck Sharp & Dohme Corp., priority 2016, dated 2020).
